Assay [1] concerns the target T1, AMPKγ1 (Homo sapiens, UniProt P54619). Description: [3H]AMP binding to GST fusion protein.
Assay [2] concerns the target T1, AMPKγ1. Description: [3H]inositol saturation binding.

T1 sequence (P54619 whole entry, the tested form may be a part): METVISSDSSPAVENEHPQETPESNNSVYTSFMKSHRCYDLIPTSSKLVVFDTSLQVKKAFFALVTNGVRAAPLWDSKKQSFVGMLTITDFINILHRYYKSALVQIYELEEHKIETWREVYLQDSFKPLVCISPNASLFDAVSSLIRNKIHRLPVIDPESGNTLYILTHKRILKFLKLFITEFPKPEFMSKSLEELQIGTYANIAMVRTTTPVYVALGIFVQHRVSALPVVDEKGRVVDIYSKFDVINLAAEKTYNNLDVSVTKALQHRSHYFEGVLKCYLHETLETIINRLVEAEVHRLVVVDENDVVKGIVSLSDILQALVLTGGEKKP

Consider `Nc1ncnc2c1ncn2[C@@H]1O[C@H](COP(=O)(O)O)[C@@H](O)[C@H]1O` [AMP], for which the IC50 in assay [1] amounted to 1.9 µM.

The molecule `O[C@H]1[C@H](O)[C@@H](O)[C@H](O)[C@@H](O)[C@H]1O` [Ins, inositol] showed a Kd in assay [2] of 98.2 pmol.

Usually IC50 stands for the midpoint of a concentration-inhibition curve.
